Entries after “also recorded” stand apart in the source; their conditions may differ.
What was measured:
Type in all cases: cell-based
[1] = target: T1, human μ-opioid receptor, OPRM (Homo sapiens, UniProt P35372); assay: PathHunter β-arrestin 2 assay, OPRM cell line
T1 construct: host or cells: HEK-293 overexpressing β-arrestin2 fused to a β-galactosidase fragment
From the text: (§1) Human embryonic kidney 293 (HEK-293) cells which transfected overexpress (3-arrestin2 fused β-galactosidase fragment were purchased from DiscoverX. Human OPRM1 gene (NM 000914.3, encoding human μ-opioid receptor, OPRM) and Human OPRD1 gene (NM 000911.3, encoding human δ-opioid receptor, OPRD) were fused to a pCMV-ProLink plasmid which contains complementary β-galactosidase fragment purchased from DiscoverX. To generate human OPRM1 or OPRD1 expression cell lines, HEK-293 cells were transfected to prepared plasmid and grown in DMEM medium with 10% fetal bovine serum, 150 μg/mL Hygromycin B and 500 μg/mL G418.
(§2) The PathHunter enzyme assay was performed to measure the agonist's capability of β-arrestin 2 pathway activation. When agonists bind to G protein-coupled receptor (GPCR), the receptor pathway is sequentially activated from G protein to β-arrestin 2 recruitment.
(§3) Because […] β-arrestin 2 and C-terminal of GPCR have a fragment of β-galactosidase, recruitment of β-arrestin 2 to GPCR forms the whole β-galactosidase. The functionality of the whole β-galactosidase is detected by chemiluminescence (FlexStation3, Molecular Devices).
(§4) cAMP and β-arrestin assays described above were conducted to decide whether candidate compounds were μ- and/or δ-opioid receptor bias agonists for the G-protein pathway. All assays produced the concentration-response curve, and the curve data was validated by a quality control factor named Z′ factor. Because half-maximal effect concentration (EC50) depends on the population of receptors, the maximal asymptote of the concentration curve was used. Efficacy data of candidates was normalized by comparison to reference agonists DAMGO and SNC80 for OPRM and OPRD.

[2] = target: T2, human δ-opioid receptor, OPRD (Homo sapiens, UniProt P41143); assay: cAMP accumulation assay (Gi pathway), OPRD cell line; conditions: for OPRD Gi Hill slope: cAMP concentration-response curve; for Emax: normalized to reference agonist SNC80
T2 construct: host or cells: HEK-293 overexpressing β-arrestin2 fused to a β-galactosidase fragment
T2 sequence (P41143 whole entry, the tested form may be a part): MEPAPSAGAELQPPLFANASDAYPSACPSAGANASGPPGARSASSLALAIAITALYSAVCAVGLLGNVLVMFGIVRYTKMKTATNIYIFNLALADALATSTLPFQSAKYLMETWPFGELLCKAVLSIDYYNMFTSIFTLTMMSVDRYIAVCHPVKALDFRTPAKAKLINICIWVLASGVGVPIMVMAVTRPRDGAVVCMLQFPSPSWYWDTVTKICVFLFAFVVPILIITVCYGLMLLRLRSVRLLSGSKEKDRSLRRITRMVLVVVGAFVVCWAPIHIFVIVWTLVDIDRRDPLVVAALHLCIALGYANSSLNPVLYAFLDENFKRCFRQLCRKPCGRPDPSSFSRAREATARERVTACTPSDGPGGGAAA
From the text: as §1
(§5) Cyclic Adenosine Monophosphate (cAMP) Accumulation
(§6) The agonist's efficacy to the G protein pathway was determined by changes in the cAMP level using the Cisbio cAMP detection kit. The cells used in cAMP assays are the same cell line as used in the β-arrestin 2 assays. The human opioid receptor activates the Gαi so intracellular cAMP accumulation is inhibited. Cisbio detection kit uses labeled cAMP and antibody. This system proceeds to compete with endogenous cAMP. If Gαi is activated, intracellular cAMP decreases. This assures that labeled-cAMP binds more with the antibody so that time-resolved fluorescence […].
as §4
(§7) The hill slope describes the steepness of the curve. […] We set the appropriate interval of hill slope as 0.8<n<1.5 which maintains the sigmoidal curve shape.

[3] = target: T1, human μ-opioid receptor, OPRM; assay: cAMP accumulation assay (Gi pathway), OPRM cell line; conditions: for OPRM Gi Hill slope / Emax / EC50: Table 1; for OPRM Gi Hill slope: cAMP concentration-response curve; for Emax / EC50: cAMP; for Emax: normalized to reference agonist DAMGO
From the text: as §1, §5, §6, §4, §7

[4] = target: T2, human δ-opioid receptor, OPRD; assay: PathHunter β-arrestin 2 assay, OPRD cell line
From the text: as §1, §2, §3, §4

[5] = target: T2, human δ-opioid receptor, OPRD; assay: Dominant assay: cAMP assay with/without irreversible antagonist β-CNA, OPRD cell line; conditions: for maximal response on decreasing receptor population (dominant tendency), in words: OPRD cell lines, β-CNA; for completeness of concentration-response curve, in words: OPRD system
From the text: (§8) To confirm the agonist's efficacy in a nature-like system, we need inactivation of target receptors on the cell membrane. Most cell lines have an abundant target receptor population (also known as spare receptors). Therefore, agonists have more opportunity to constitute agonist-receptor conformation. In this environment, not only full agonists but also partial agonists can reach maximal response.
(§9) If the partial agonist is selected as a full agonist, translational in vivo research will likely fail.
(§10) Non-competitive, irreversible antagonists can be applicable to judge the pharmacological character of agonists because they permanently decrease the receptor population in the cell line system. β-FNA or β-CNA is used as a non-competitive and irreversible antagonist for OPRM, OPRD. Before cAMP assay, cells were incubated with β-FNA or β-CNA for 40 minutes. Afterwards, the procedure is the same.
(§11) If a partial agonist compound acts as a full agonist due to receptor population (pseudo full agonist), it cannot sustain maximal response with reduced receptor population. However, a full agonist compound maintains their maximal response even though increased EC50.

[6] = target: T1, human μ-opioid receptor, OPRM; assay: Dominant assay: cAMP assay with/without irreversible antagonist β-FNA, OPRM cell line; conditions: for maximal response on decreasing receptor population (dominant tendency), in words: OPRM cell lines, β-FNA
From the text: as §8, §9, §10, §11

[7] = Example 3, Tables 5-7, read-out: OPRM β-ARR2 Emax (%)
[8] = Table 1, normalized to reference agonist DAMGO, read-out: OPRM arrestin Emax, %
[9] = Example 3, Tables 5-7, read-out: OPRD β-ARR2 Emax (%)
[10] = Table 1, normalized to reference agonist SNC80, read-out: OPRD arrestin Emax, %
[11] = addition of β-CNA, Example 3, Tables 5-7, read-out: OPRD Gi β-CNA (+) Emax (%)
[12] = no addition of β-CNA, Example 3, Tables 5-7, read-out: OPRD Gi β-CNA (−) Emax (%)
[13] = addition of β-FNA, Example 3, Tables 5-7, read-out: OPRM Gi β-FNA (+) Emax (%)
[14] = no addition of β-FNA, Example 3, Tables 5-7, read-out: OPRM Gi β-FNA (−) Emax (%)
[15] = Table 1, cAMP, read-out: OPRD Gi EC50
[16] = addition of β-CNA, Example 3, Tables 5-7, read-out: OPRD Gi β-CNA (+) EC50
[17] = addition of β-CNA, repeated dominant assay, Example 4, Tables 8-10, read-out: OPRD Gi β-CNA (+) EC50
[18] = addition of β-CNA, repeated dominant assay, Example 4, Tables 8-10, read-out: OPRD Gi β-CNA (+) Emax (%)
[19] = no addition of β-CNA, Example 3, Tables 5-7, read-out: OPRD Gi β-CNA (−) EC50
[20] = no addition of β-CNA, repeated dominant assay, Example 4, Tables 8-10, read-out: OPRD Gi β-CNA (−) EC50
[21] = no addition of β-CNA, repeated dominant assay, Example 4, Tables 8-10, read-out: OPRD Gi β-CNA (−) Emax (%)
[22] = addition of β-FNA, Example 3, Tables 5-7, read-out: OPRM Gi β-FNA (+) EC50
[23] = addition of β-FNA, repeated dominant assay, Example 4, Tables 8-10, read-out: OPRM Gi β-FNA (+) EC50
[24] = addition of β-FNA, repeated dominant assay, Example 4, Tables 8-10, read-out: OPRM Gi β-FNA (+) Emax (%)
[25] = no addition of β-FNA, Example 3, Tables 5-7, read-out: OPRM Gi β-FNA (−) EC50
[26] = no addition of β-FNA, repeated dominant assay, Example 4, Tables 8-10, read-out: OPRM Gi β-FNA (−) EC50
[27] = no addition of β-FNA, repeated dominant assay, Example 4, Tables 8-10, read-out: OPRM Gi β-FNA (−) Emax (%)

T1 sequence (P35372 whole entry, the tested form may be a part): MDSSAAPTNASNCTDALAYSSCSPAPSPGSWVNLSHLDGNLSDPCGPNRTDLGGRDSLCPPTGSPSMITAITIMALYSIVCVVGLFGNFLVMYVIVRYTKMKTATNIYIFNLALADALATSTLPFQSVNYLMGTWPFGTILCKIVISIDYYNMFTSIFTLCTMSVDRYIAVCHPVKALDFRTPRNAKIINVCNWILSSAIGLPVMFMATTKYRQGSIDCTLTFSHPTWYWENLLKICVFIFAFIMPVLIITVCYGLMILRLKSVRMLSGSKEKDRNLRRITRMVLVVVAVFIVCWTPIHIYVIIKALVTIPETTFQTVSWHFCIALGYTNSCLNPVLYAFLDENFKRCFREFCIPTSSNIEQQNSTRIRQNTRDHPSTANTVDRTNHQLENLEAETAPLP

| SMILES | Emax [1, 7] [%] | Emax [1, 8] [%] | OPRD Gi Hill slope ([2]; Table 1) | Emax ([2]; Table 1, cAMP) [%] | OPRM Gi Hill slope [3] | Emax [3] [%] | Emax [4, 9] [%] | Emax [4, 10] [%] | maximal response on decreasing receptor population (dominant tendency), in words [5] | completeness of concentration-response curve, in words [5] | Emax [5, 11] [%] | Emax [5, 12] [%] | maximal response on decreasing receptor population (dominant tendency), in words [6] | Emax [6, 13] [%] | Emax [6, 14] [%] | EC50 [2, 15] [µM] | EC50 [3] [µM] | EC50 [5, 16] [nM] | EC50 [5, 17] [nM] | EC50 [5, 19] [nM] | other results |
| --- | --- | --- | --- | --- | --- | --- | --- | --- | --- | --- | --- | --- | --- | --- | --- | --- | --- | --- | --- | --- | --- |
| COc1ccsc1CNCC[C@@]1(c2ccccn2)CCOC2(CCCC2)C1 [TRV130, reference compound] | 2.4 | 2.41 | 1.28 | 63.4 | 0.35 | 101 | 9.6 | 9.6 | more susceptible to decreasing receptor populations than SNC80; also recorded: less resistance to decreasing spare receptors than SNC80 | produced a full concentration-response curve | 67.2 | 73.9 | susceptible to decreasing receptor populations than DAMGO; also recorded: attenuates the efficacy; also recorded: more susceptible to decreasing receptor populations than DAMGO | 56.3 | 89.5 |  |  |  |  |  | EC50 [2]: 2.04 µM; Gi pathway agonism, in words ([3]; OPRM): full agonism; EC50 ([5]; OPRD Gi β-CNA (+) EC50 (nM), addition of β-CNA, Example 3, Tables 5-7): 1200 nM; EC50 ([5]; OPRD Gi β-CNA (−) EC50 (nM), no addition of β-CNA, Example 3, Tables 5-7): 1.49 nM |
| CN1CCc2cc(C(CNC(=O)Nc3ccc(F)cc3)N(C)C)ccc21 (racemic) [Compound 2, 3-[2-(dimethylamino)-2-(1-methyl-2,3-dihydro-1H-indol-5-yl)ethyl]-1-(4-fluorophenyl)urea] | 15.3 | 15.3 | 1.44 | 92.4 | 0.94 | 109 | 4.66 | 4.66 | resistant to decreasing spare receptors; also recorded: resistant to decreasing spare receptor-induced tendency | produced a full concentration-response curve | 78.5 | 98.9 | showed a similar pattern as compared to DAMGO; also recorded: resistant to decreasing spare receptors; also recorded: resistant to decreasing spare receptor-induced tendency | 80.1 | 98.6 | 1.05 | 1.88 | 2380 | 6220 | 4.98 | Emax [5, 18]: 70.2%; EC50 [5, 20]: 1650 nM; Emax [5, 21]: 100%; EC50 [6, 22]: 1.17 µM; EC50 [6, 23]: 4.19 µM; Emax [6, 24]: 77.4%; EC50 [6, 25]: 0.682 µM; EC50 [6, 26]: 1.7 µM; Emax [6, 27]: 103% |
| Cc1ccccc1NC(=O)NCC(c1ccc2c(c1)CCO2)N(C)C (racemic) [Compound 3, 3-[2-(2,3-dihydro-1-benzofuran-5-yl)-2-(dimethylamino)ethyl]-1-(2-methylphenyl)urea] | 12.2 | 12.2 | 1.16 | 94.6 | 1.48 | 112 | 1.99 | 1.99 |  | curve was cut due to the X-axis limitation | 50.9 | 106 | showed a similar pattern as compared to DAMGO | 91.3 | 97.9 | 8.37 | 1.29 | 10600 | 4450 | 4350 | Emax [5, 18]: 48.2%; EC50 [5, 20]: 3630 nM; Emax [5, 21]: 100%; EC50 [6, 22]: 1.58 µM; EC50 [6, 23]: 0.0227 µM; Emax [6, 24]: 75.5%; EC50 [6, 25]: 0.656 µM; EC50 [6, 26]: 0.036 µM; Emax [6, 27]: 102% |
| C[C@@H](Cc1ccsc1)NC(=O)NC[C@H](Cc1ccc(O)cc1)N(C)C [PZM21, reference compound] |  |  | 0.83 |  |  |  |  |  | more susceptible to decreasing receptor populations than SNC80; also recorded: less resistance to decreasing spare receptors than SNC80 | produced a full concentration-response curve |  |  |  |  |  | 0.23 |  | 288 |  | 119 | Gi pathway agonism, in words ([2]; OPRD): OPRM, OPRD dual biased agonist; OPRD β-ARR2 Emax (%) ([4]; Example 3, Tables 5-7): 3.41%; OPRD arrestin Emax, % ([4]; Table 1, normalized to reference agonist SNC80): 3.41%; OPRD Gi β-CNA (+) Emax (%) ([5]; addition of β-CNA, Example 3, Tables 5-7): 58.77%; OPRD Gi β-CNA (−) Emax (%) ([5]; no addition of β-CNA, Example 3, Tables 5-7): 95.97% |

From US20220204449A1, “BIASED AGONISTS OF OPIOID RECEPTORS” (ILDONG PHARMACEUTICAL CO., LTD., priority 2020, published 2022)
